Literature values in patent US20090041840A1, “Positive wakeup pharmaceutical sleep system with compatible pre-bedtime administration” (priority 2003, published 2009).

Columns and labels:
[1] = Wesensten
[2] = not given; remark: listed apart in the source

## COC(=O)C(c1ccccc1)C1CCCCN1 (racemic) [methylphenidate]
Literature sources
  Half-life, average: 2.5 h

## CCOC(=O)c1ncn2c1CN(C)C(=O)c1cc(F)ccc1-2 [Flumazenil, ethyl 8-fluoro-5,6-dihydro-5-methyl-6-oxo-4H-imidazo(1,5a)(1,4)benzodiazepine-3-carboxylate]
[1]
  Effect in countering sleep deprivation: ineffective

## Cn1c(=O)c2c(ncn2C)n(C)c1=O [caffeine, 1,3,7-trimethylxanthine]
Healthy individuals, Brachtel and Richter, Busto et al.
  Mean half-life in plasma: about 5 hours

## NC(=O)C[S+]([O-])C(c1ccccc1)c1ccccc1 (centres unmarked) [modafinil]
Wong, et al
  Half-life: approximately 15 hours

## CCN(C(C)=O)c1cccc(-c2ccnc3c(C#N)cnn23)c1 [zaleplon]
[2]
  Solubility in water: practically insoluble
